Laboratory results from article PMC11130353, “Using host-mimicking conditions and a murine cutaneous abscess model to identify synergistic antibiotic combinations effective against Pseudomonas aeruginosa” (Frontiers in Cellular and Infection Microbiology, 2024).
Values after ≈ are worked out from the molar mass of the structure shown. Where two headings read alike, the source gives them in different places. Peptide text beside a SMILES is read from it.

How the values were obtained:
[1] = system: P. aeruginosa PAO1; experiment: Minimum inhibitory concentration, broth microdilution; assay type: cell-based, Pseudomonas aeruginosa; conditions: for Fold change TCM vs MHB (MIC): MIC in TCM vs MIC in MHB; for MIC: Pseudomonas aeruginosa, PAO1
Protocol: (§1) For susceptibility testing under standard conditions, bacteria were cultured in Muller Hinton Broth MHB (Fort Richards Laboratories). […] Further susceptibility testing was also conducted in MHB supplemented with FBS (5% v/v) and DMEM supplemented with glucose (1% w/v) and MHB (10% v/v).
(§2) The minimum inhibitory concentration (MIC) of each antibiotic was determined using the broth microdilution method in 96-well plates. […] Briefly, antibiotics were two-fold serially diluted in MHB or TCM prior to adding 1 × 10^6 CFU mL^-1 bacteria. Plates were incubated at 37°C for 22-24 hours. The MIC was recorded as the lowest antibiotic concentration with no visible growth and the median value of at least three biological replicates reported.

[2] = system: P. aeruginosa LESB58-lux; experiment: In vitro synergy, checkerboard assay (luminescence readout); assay type: cell-based, Pseudomonas aeruginosa; conditions: LESB58-lux; for FICI, drug combined with CAZ / FICI, drug combined with CZA: FICI <= 0.5 indicates synergy
Protocol: (§3) For susceptibility testing under standard conditions, bacteria were cultured in Muller Hinton Broth MHB (Fort Richards Laboratories). Host mimicking conditions in vitro were simulated using tissue culture medium (TCM) consisting of Dulbecco’s modified Eagle medium (DMEM; Gibco #11965) supplemented with FBS (Moregate Biotech) (5% v/v) and glucose (1% w/v). Further susceptibility testing was also conducted in MHB supplemented with FBS (5% v/v) and DMEM supplemented with glucose (1% w/v) and MHB (10% v/v).
(§4) The P. aeruginosa LESB58.lux strain was used for in vitro synergy experiments with azithromycin in MHB and all antibiotic combinations in TCM to determine bacterial growth (as visual inspection and absorbance measurements were unreliable). Synergy was determined using the checkerboard method ([Berenbaum, 1978]; [Pletzer and Hancock, 2018]) in at least triplicate. Each antibiotic was two-fold serially diluted in sterile water before transferring to a 96-well plate containing 1 × 10^6 CFU mL^-1 bacteria in MHB or TCM. Plates were incubated at 37°C for 22-24 hours. The MIC alone or in combination was recorded as the lowest antibiotic concentration with no visible growth. For experiments using the LESB58.lux strain no visible growth was defined as an at least 95% reduction compared to the no antibiotic growth control in luminescence detected using a ClarioStar plate reader. The fractional inhibitory concentration index (FICI) was calculated as [(MICA in combination)/MICA] + [(MICB in combination)/MICB]. FICI values of 0.5 or below indicated synergy, while values above 0.5 up to and including 1 were taken to indicate additivity. FICI values above 1 indicate indifference or antagonism ([Odds, 2003]).

[3] = system: P. aeruginosa LESB58; experiment: microbe, parasite or virus in culture; assay type: cell-based, Pseudomonas aeruginosa; conditions: for Fold change TCM vs MHB (MIC): MIC in TCM vs MIC in MHB; for MIC: Pseudomonas aeruginosa; for MIC in TCM: TCM (DMEM + 1% glucose + 5% FBS)
Protocol: as §1
as §2, with “Plates were incubated at 37°C for 22-24 hours.” left out

[4] = Protocol: Mice used in this study were female Swiss Webster aged approximately 6-7 weeks and sourced from the University of Otago Biomedical Research Facility. […] Briefly, the fur on the back of each mouse was removed by shaving and chemical depilation. Antibiotics were tested for skin toxicity by injecting 50 μL of antibiotic suspension subcutaneously into naïve mice, and subsequent inspection of the skin for inflammation on the next day. P. aeruginosa LESB58 was grown to mid-log phase in dYT broth, washed twice in sterile PBS (Gibco, pH 7.4), and resuspended in PBS to ~1 x 10^8 CFU per 50 μL inoculum. The bacterial suspension (50 μL) was injected subcutaneously into the right side of the dorsum, followed one hour later by 50 μL of antibiotic treatment injected directly into the infected area. […] Combination treatments were administered as a single 50 μL injection containing both antibiotics. The concentration of each antibiotic in the combination was the same as when it was used alone. Progression of the infection was monitored daily, and abscess dimensions were measured on day three using a calliper. On day three, abscess tissue and pus were excised, homogenized in sterile PBS using SPEX SamplePrep 1600 MiniG for five minutes and bacterial CFU counts determined by serial dilution.
[5] = system: P. aeruginosa LESB58; experiment: Murine high density subcutaneous skin abscess model; assay type: in vivo, Pseudomonas aeruginosa; conditions: for CFU per abscess, Fold change / Area of dermoncecrosis, % reduction: compared to the vehicle control; for CFU per abscess, Fold change / Area of dermoncecrosis, % reduction / CFU per abscess, Geometric mean / Area of dermoncecrosis, Mean: day 3; for Area of dermoncecrosis, Mean: female Swiss Webster mice
Protocol: Mice used in this study were female Swiss Webster aged approximately 6-7 weeks and sourced from the University of Otago Biomedical Research Facility. […] The subcutaneous abscess infection model was performed as previously described ([Pletzer et al., 2017]) with a higher inoculum. Briefly, the fur on the back of each mouse was removed by shaving and chemical depilation. Antibiotics were tested for skin toxicity by injecting 50 μL of antibiotic suspension subcutaneously into naïve mice, and subsequent inspection of the skin for inflammation on the next day. P. aeruginosa LESB58 was grown to mid-log phase in dYT broth, washed twice in sterile PBS (Gibco, pH 7.4), and resuspended in PBS to ~1 x 10^8 CFU per 50 μL inoculum. The bacterial suspension (50 μL) was injected subcutaneously into the right side of the dorsum, followed one hour later by 50 μL of antibiotic treatment injected directly into the infected area. […] Combination treatments were administered as a single 50 μL injection containing both antibiotics. The concentration of each antibiotic in the combination was the same as when it was used alone. Progression of the infection was monitored daily, and abscess dimensions were measured on day three using a calliper. On day three, abscess tissue and pus were excised, homogenized in sterile PBS using SPEX SamplePrep 1600 MiniG for five minutes and bacterial CFU counts determined by serial dilution. In this model, synergy was defined as being a significant difference between the combination treated group and the amalgamated group of single drug treated animals ([Fantin and Carbon, 1992]; [Pletzer et al., 2018]).
Statistical analysis was performed using GraphPad Prism 9.5.1. Bacterial CFU and abscess size data from in vivo experiments was analysed by Kruskal-Wallace test with Dunn’s correction for multiple comparisons. The data was considered significant when p-values were below 0.05 or 0.01 as indicated.

[6] = system: P. aeruginosa LESB58; experiment: In vitro synergy, checkerboard assay; assay type: cell-based, Pseudomonas aeruginosa; conditions: MHB; for FICI, drug combined with CAZ / FICI, drug combined with CZA: FICI <= 0.5 indicates synergy
Protocol: as §3, §4

[7] = LESB58, read-out: MIC in MHB, MHB, 20-24 h
[8] = LESB58, read-out: MIC in TCM, TCM (DMEM + 1% glucose + 5% FBS), 20-24 h
[9] = 50 μL injected subcutaneously, skin inspected next day
[10] = female, Swiss Webster, mouse, in vivo, sc, 1 day
[11] = Azithromycin group, CAZ or CZA 50 mg/mL, AZM 6.25 mg/mL
[12] = Colistin, tigecycline and tobramycin groups (shared vehicle, CAZ and CZA mice), 50 μL s.c. 1 h after infection, CAZ or CZA 50, CST 1.25, TGC 2.5, TOB 2 mg/mL, vehicle 0.9% saline
[13] = Colistin, tigecycline and tobramycin groups

| SMILES | Fold change TCM vs MHB (MIC) [1] | MIC ([1]; read-out: MIC in MHB) [µg/mL] | MIC ([1]; read-out: MIC in TCM) [µg/mL] | Fold decrease in CAZ MIC, drug combined with CAZ ([2]; TCM) | Fold decrease in CZA MIC, drug combined with CZA ([2]; TCM) | Fold decrease in other MIC, drug combined with CAZ ([2]; TCM) | Fold decrease in other MIC, drug combined with CZA ([2]; TCM) | FICI, drug combined with CAZ ([2]; TCM) | FICI, drug combined with CZA ([2]; TCM) | Fold change TCM vs MHB (MIC) [3] | MIC [3, 7] [µg/mL] | MIC [3, 8] [µg/mL] | Highest tolerated dose tested [4, 9] [mg/mL] | Toxic (visible skin irritation, inflammation, blood vessels, swelling) [4, 10] [mg/mL] | Fold decrease in CAZ MIC, drug combined with CAZ [6] | Fold decrease in CZA MIC, drug combined with CZA [6] | Fold decrease in other MIC, drug combined with CAZ [6] | Fold decrease in other MIC, drug combined with CZA [6] | FICI, drug combined with CAZ [6] | MIC in TCM ([3]; 20-24 h) | also measured |
| --- | --- | --- | --- | --- | --- | --- | --- | --- | --- | --- | --- | --- | --- | --- | --- | --- | --- | --- | --- | --- | --- |
| CC[C@H]1OC(=O)[C@H](C)[C@@H](O[C@H]2C[C@@](C)(OC)[C@@H](O)[C@H](C)O2)[C@H](C)[C@@H](O[C@@H]2O[C@H](C)C[C@H](N(C)C)[C@H]2O)[C@](C)(O)C[C@@H](C)CN(C)[C@H](C)[C@@H](O)[C@]1(C)O [AZM, azithromycin] | >-300 | 250 (≈ 334 µM) | < 0.78 | 8 | 2 | 2 | 2 | 0.625 | 1 | -100 | 62.5 (≈ 83.4 µM) | 0.625 | 25 | 50 | – | – | – | – | – | – | Fold decrease in CAZ MIC, drug combined with CAZ ([2]; MHB): 4; Fold decrease in CZA MIC, drug combined with CZA ([2]; MHB): 4; Fold decrease in other MIC, drug combined with CAZ ([2]; MHB): 4; Fold decrease in other MIC, drug combined with CZA ([2]; MHB): 2; FICI, drug combined with CAZ ([2]; MHB): 0.5; FICI, drug combined with CZA ([2]; MHB): 0.75; FICI, drug combined with CZA ([2]; MHB, listed as azithromycin): did not act synergistically; Fold increase of efficacy in TCM compared to MHB ([3]; host mimicking TCM vs MHB): 100; Fold reduction of bacterial load (CFU) relative to vehicle ([5]; Azithromycin experiments): ~ 42; CFU per abscess, Fold change ([5]; Azithromycin group): -42.1; Area of dermoncecrosis, % reduction [5, 11]: 36.4%; Area of dermoncecrosis, % reduction ([5]; Azithromycin group, CAZ or CZA 50 mg/mL, AZM 6.25 mg/mL, listed as azithromycin): 36%; CFU per abscess, Geometric mean [5, 11]: 8.5 × 10^6 CFU per abscess; Area of dermoncecrosis, Mean ([5]; Azithromycin group, 50 μL s.c. into infected area 1 h after infection, CAZ or CZA 50 mg/mL, AZM 6.25 mg/mL, vehicle citric acid in saline): 64.5 mm^2 |
| CC[C@H](C)CCCCC(=O)N[C@@H](CCN)C(=O)N[C@H](C(=O)N[C@@H](CCN)C(=O)N[C@H]1CCNC(=O)[C@H]([C@@H](C)O)NC(=O)[C@H](CCN)NC(=O)[C@H](CCN)NC(=O)[C@H](CC(C)C)NC(=O)[C@@H](CC(C)C)NC(=O)[C@H](CCN)NC1=O)[C@@H](C)O [CST, colistin] (HELM PEPTIDE1{[CC[C@H](C)CCCCC(=O)[*:2]].[Dab].T.[Dab].[Dab].[Dab].[dL].L.[Dab].[Dab].T}$PEPTIDE1,PEPTIDE1,5:R3-11:R2$$$V2.0) | 10 | – | – | 8 | 4 | 4 | 4 | 0.38 | 0.5 | – | – | – | 2 | – | 4 | 4 | 8 | 8 | 0.38 | 12.5 µg/mL | MIC in MHB ([1]; MHB): 2.5 µg/mL (≈ 2.14 µM); MIC in TCM ([1]; TCM): 25 µg/mL (≈ 21.4 µM); FICI, drug combined with CAZ ([2]; TCM, listed as colistin): synergised; FICI, drug combined with CZA ([2]; TCM, listed as colistin): synergised; MIC in MHB ([3]; MHB, 20-24 h): 3.13 µg/mL (≈ 2.68 µM); Toxic (visible skin irritation, inflammation, blood vessels, swelling) [4, 9]: 5 mg/mL; Area of dermoncecrosis, Mean [5, 12]: 38.6 mm^2; Area of dermoncecrosis, % reduction [5, 13]: 58.9%; CFU per abscess, Fold change [5, 13]: -107.4; Area of dermoncecrosis, % reduction ([5]; Colistin, tigecycline and tobramycin groups, listed as colistin): 59%; CFU per abscess, Geometric mean [5, 13]: 2.3 × 10^6 CFU per abscess; Fold reduction of bacterial load (CFU) relative to vehicle ([5]; Colistin, tigecycline, tobramycin experiments): ~107 |
| CN(C)c1cc(NC(=O)CNC(C)(C)C)c(O)c2c1C[C@H]1C[C@H]3[C@H](N(C)C)C(O)=C(C(N)=O)C(=O)[C@@]3(O)C(O)=C1C2=O [TGC, tigecycline] | >40 | 12.5 (≈ 21.3 µM) | > 500 | – | – | – | – | – | – | >80 | 6.25 (≈ 10.7 µM) | > 500 | 12 | 25 | 4 | 8 | 8 | 8 | 0.38 | entirely lost its efficacy | FICI, drug combined with CZA [6]: 0.25; FICI, drug combined with CAZ ([6]; listed as tigecycline): < 0.4; FICI, drug combined with CZA ([6]; listed as tigecycline): < 0.4; Area of dermoncecrosis, Mean [5, 12]: 86.7 mm^2; Area of dermoncecrosis, % reduction [5, 13]: 7.7%; CFU per abscess, Fold change [5, 13]: -2.4; CFU per abscess, Geometric mean [5, 13]: 1.0 × 10^8 CFU per abscess |
